Measured values: EP4610269A1, “UROKINASE PLASMINOGEN ACTIVATOR SURFACE RECEPTOR (UPAR) LIGANDS FOR DIAGNOSTIC OR THERAPEUTIC USE” (3B Pharmaceuticals GmbH, priority 2024, dated 2025)
Like-named read-outs stand apart in the source and are kept apart here. Where a SMILES comes first, the peptide text is derived from it. Bridges are numbered along the chain shown (N, C = ends). [ ]: non-standard residue; d: D form. The star is where a group is joined. X4 = C[N+](C)(CCCC[C@H](NC(=O)CN1CCN(CC(=O)O)CCN(CC(=O)O)CCN(CC(=O)O)CC1)C(=O)*)CCCS(=O)(=O)[O-]; DOTA = O=C(O)CN1CCN(CC(=O)O)CCN(CC(=O)*)CCN(CC(=O)O)CC1; Lys(Me3) = C[N+](C)(C)CCCC[C@H](N)C(=O)O; Pro(cis-4-F) = O=C(O)[C@@H]1C[C@H](F)CN1; Dopa = N[C@@H](Cc1ccc(O)c(O)c1)C(=O)O; Hyp = O=C(O)[C@@H]1C[C@@H](O)CN1; LaDOTA = La(III) DOTA conjugate; Pentanoyl(4-Me) = CC(C)CCC(=O)*; Cha = N[C@@H](CC1CCCCC1)C(=O)O; Cit = NC(=O)NCCC[C@H](N)C(=O)O; Butoxycarbonyl = CCCCOC(=O)*; Api = NC1(C(=O)O)CCNCC1; Dab = NCC[C@H](N)C(=O)O; Nva = CCC[C@H](N)C(=O)O; Pentanoyl = CCCCC(=O)*; Ava = NCCCCC(=O)O

Tests used:
human uPAR (uPAR-Fc) = molecular target: T1, human uPAR (uPAR-Fc) (Homo sapiens, UniProt Q03405); test: Surface plasmon resonance (SPR) assay, single cycle kinetics; format: binding; settings: pKD category for uPAR SPR activity assay, uPAR-Fc on Protein A-Chip, 25°C; for Kd: read-out: pKD CAT (converted)
T1 construct: comprising amino acids Leu23-Arg303 according to UniProt entry Q03405.1; purchased R&D Systems 10378-UK-100
In short: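 uPAR-Fc (Leu23-Arg303 extracellular domains, human IgG1 Fc) captured on Protein A chip to ~2000 RU; single-cycle kinetics at 25°C in HEPES running buffer pH 7.4 with 0.1% DMSO. KD from double-referenced sensorgrams fitted to 1:1 Langmuir model, reported as pKD.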

[1] = molecular target: T2, uPAR-expressing HEC-265 human endometrial adenocarcinoma cells (Homo sapiens, UniProt Q03405); test: Competitive FACS binding assay; settings: pIC50 category of FACS binding
T2 construct: Cell surface uPAR-expressing HEC-265 human endometrial adenocarcinoma cells; host or cells: HEC-265
In short: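 HEC-265 cells incubated 1 h at 4 °C with 10 nM biotinylated uPAR peptide tracer plus increasing test compound, then stained with APC-streptavidin on ice. Median APC fluorescence by flow cytometry; 4PL fit gives pIC50.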

T1 sequence (Q03405 23-303): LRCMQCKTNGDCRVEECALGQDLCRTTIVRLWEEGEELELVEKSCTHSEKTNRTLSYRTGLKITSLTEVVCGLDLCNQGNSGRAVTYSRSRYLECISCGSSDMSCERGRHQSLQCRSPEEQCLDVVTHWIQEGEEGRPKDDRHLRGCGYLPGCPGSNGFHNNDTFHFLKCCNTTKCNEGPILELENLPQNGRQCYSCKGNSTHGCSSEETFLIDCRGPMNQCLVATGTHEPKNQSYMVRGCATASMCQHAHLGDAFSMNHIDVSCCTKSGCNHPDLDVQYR
T2 sequence (Q03405 23-335): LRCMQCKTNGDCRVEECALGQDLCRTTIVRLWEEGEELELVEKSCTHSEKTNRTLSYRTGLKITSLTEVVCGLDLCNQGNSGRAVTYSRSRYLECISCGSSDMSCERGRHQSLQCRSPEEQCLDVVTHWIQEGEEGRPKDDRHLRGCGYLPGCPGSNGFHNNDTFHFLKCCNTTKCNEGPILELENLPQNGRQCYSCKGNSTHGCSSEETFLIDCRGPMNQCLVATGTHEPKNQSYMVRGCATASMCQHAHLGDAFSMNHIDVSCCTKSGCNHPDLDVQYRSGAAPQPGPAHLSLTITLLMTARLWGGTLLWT

| Kd (human uPAR (uPAR-Fc)) [nM] | IC50 [1] [nM] | Kd (human uPAR (uPAR-Fc); single cycle kinetics) [nM] | pKD CAT (human uPAR (uPAR-Fc)) | pIC50 CAT [1] | Compound |
| --- | --- | --- | --- | --- | --- |
| – | ≤ 10 | < 1.58 | – | – | CCCCC(=O)N[C@H]1CSSC[C@@H](C(N)=O)NC(=O)[C@H](CC(C)C)NC(=O)[C@H]([C@@H](C)CC)NC(=O)[C@@H](C)NC(=O)[C@@H]2CCCN2C(=O)[C@H](Cc2ccccc2)NC(=O)[C@H](Cc2ccc(O)cc2)NC(=O)[C@H](CCC(N)=O)NC(=O)[C@H](CCCNC(N)=O)NC1=O [UPAR-362, Pent-[Cys-Cit-Gln-Tyr-Phe-Pro-ala-Ile-Leu-Cys]-NH2] (Pentanoyl-C[Cit]QYFP[dA]ILC-NH2; disulfide 1-10) |
| – | ≤ 10 | < 1.58 | – | – | CCC[C@@H]1NC(=O)[C@H]([C@@H](C)CC)NC(=O)[C@@H]2C[C@@H](O)CN2C(=O)[C@@H]2CCCN2C(=O)[C@H](Cc2ccccc2)NC(=O)[C@H](Cc2ccc(O)cc2)NC(=O)[C@H](CCC(N)=O)NC(=O)[C@H](CCCNC(=N)N)NC(=O)[C@@H](NC(=O)[C@H](CC2CCCCC2)NC(C)=O)CSSC[C@@H](C(N)=O)NC1=O [UPAR-372, Ac-Cha-[Cys-Arg-Gln-Tyr-Phe-Pro-Hyp-Ile-Nva-Cys]-NH2] (Ac-[Cha]CRQYFP[Hyp]I[Nva]C-NH2; disulfide 2-11) |
| – | ≥ 126 | > 100 | – | – | CC[C@H](C)[C@@H]1NC(=O)[C@@H](C)NC(=O)[C@@H]2CCCN2C(=O)[C@H](Cc2ccccc2)NC(=O)[C@H](Cc2ccc(O)cc2)NC(=O)[C@H](CCC(N)=O)NC(=O)[C@H](CCCNC(N)=O)NC(=O)[C@@H](NC(=O)CCCCN)CSSC[C@@H](C(N)=O)NC(=O)[C@H](CC(C)C)NC1=O [UPAR-394, H-Ava-[Cys-Cit-Gln-Tyr-Phe-Pro-ala-Ile-Leu-Cys]-NH2] (H-[Ava]C[Cit]QYFP[dA]ILC-NH2; disulfide 2-11) |

The next lines start with the compound.

| Compound | Kd (human uPAR (uPAR-Fc)) [nM] | IC50 [1] [nM] | Kd (human uPAR (uPAR-Fc); single cycle kinetics) [nM] | pKD CAT (human uPAR (uPAR-Fc)) | pIC50 CAT [1] |
| --- | --- | --- | --- | --- | --- |
| CCCCC(=O)N[C@H]1CSSC[C@@H](C(N)=O)NC(=O)[C@H](CCC)NC(=O)[C@H]([C@@H](C)CC)NC(=O)[C@H](Cc2ccc(O)cc2)NC(=O)[C@@H]2CCCN2C(=O)[C@H](Cc2ccccc2)NC(=O)[C@H](Cc2ccc(O)cc2)NC(=O)[C@H](CCC(N)=O)NC(=O)[C@H](CCCNC(=N)N)NC1=O [UPAR-226, Pent-[Cys-Arg-Gln-Tyr-Phe-Pro-Tyr-Ile-Nva-Cys]-NH2] (Pentanoyl-CRQYFPYI[Nva]C-NH2; disulfide 1-10) | < 1.58 | ≤ 10 | – | – | – |
| CCCCOC(=O)N[C@H]1CSSC[C@@H](C(N)=O)NC(=O)[C@H](CCC)NC(=O)[C@H]([C@@H](C)CC)NC(=O)[C@@H]2C[C@@H](O)CN2C(=O)[C@@H]2C[C@H](F)CN2C(=O)[C@H](Cc2ccccc2)NC(=O)[C@H](Cc2ccc(O)c(O)c2)NC(=O)[C@H](CCNC(=O)CN2CCN(CC(=O)O)CCN(CC(=O)O)CCN(CC(=O)O)CC2)NC(=O)[C@H]([C@@H](C)O)NC1=O [UPAR-456, Butoc-[Cys-Thr-Dab(DOTA)-Dopa-Phe-4Cfp-Hyp-Ile-Nva-Cys]-NH2] (Butoxycarbonyl-CT[Dab](DOTA)[Dopa]F[Pro(cis-4-F)][Hyp]I[Nva]C-NH2; disulfide 1-10) | – | ≤ 10 | < 1.58 | – | – |
| CCCCOC(=O)N[C@H]1CSSC[C@@H](C(N)=O)NC(=O)[C@H](CCC)NC(=O)[C@H]([C@@H](C)CC)NC(=O)[C@@H]2C[C@@H](O)CN2C(=O)[C@@H]2C[C@H](F)CN2C(=O)[C@H](Cc2ccccc2)NC(=O)[C@H](Cc2ccc(O)c(O)c2)NC(=O)[C@H](CCCCNC(=O)[C@H](CCCC[N+](C)(C)CCCS(=O)(=O)[O-])NC(=O)CN2CCN(CC(=O)O)CCN(CC(=O)O)CCN(CC(=O)O)CC2)NC(=O)[C@H]([C@@H](C)O)NC1=O [UPAR-194, Butoc-[Cys-Thr-Lys(DOTA-Kzw)-Dopa-Phe-4Cfp-Hyp-Ile-Nva-Cys]-NH2] (Butoxycarbonyl-CTK(X4)[Dopa]F[Pro(cis-4-F)][Hyp]I[Nva]C-NH2; disulfide 1-10) | < 1.58 | ≤ 10 | – | – | – |
| CC[C@H](C)[C@@H]1NC(=O)C2(CCN(C(=O)CN3CCN(CC(=O)O)CCN(CC(=O)O)CCN(CC(=O)O)CC3)CC2)NC(=O)[C@@H]2CCCN2C(=O)[C@H](Cc2ccccc2)NC(=O)[C@H](Cc2ccc(O)cc2)NC(=O)[C@H](CCC(N)=O)NC(=O)[C@H](CCCNC(=N)N)NC(=O)[C@@H](NC(=O)CCC(C)C)CSSC[C@@H](C(N)=O)NC(=O)[C@H](CC(C)C)NC1=O [UPAR-152, iHex-[Cys-Arg-Gln-Tyr-Phe-Pro-Apc(DOTA)-Ile-Leu-Cys]-NH2] ({Pentanoyl(4-Me)}-CRQYFP[Api](DOTA)ILC-NH2; disulfide 1-10) | < 1.58 | ≤ 10 | – | – | – |
| Pent-[Cys-KMe3-Lys(LaDOTA)-Tyr-Phe-Pro-Hyp-Ile-Nva-Cys]-NH2 (Pentanoyl-C[Lys(Me3)]K(LaDOTA)YFP[Hyp]I[Nva]C-NH2; disulfide 1-10; not fully specified; also: La(III) complexed by DOTA) [UPAR-183] | – | – | – | A (pKD values ≥ 8.8) | A (pIC50 values ≥8.0) |
